Assay results taken from patent US9034895B2, “Composition and methods for treating glioblastoma” (University of Washington Through its Center for …, priority 2010, dated 2015).

What was measured:
T98g cells = assay: Cell viability assay (WST-1), toxic potency and efficacy at T98g cells; type: cell-based; conditions: Homo sapiens, 72 h
Method: Cells were plated media supplemented with 10% serum in 96-well plates (10^4 cells per wellI; 0.1 ml per well). Once they reached ˜70% confluence, they were rinsed with PBS and kept for an additional 24 hrs in media supplemented with 1% serum, at which time drugs or vehicle (DMSO, 0.1%, prepared in 10 μl serum-free media) were directly added to each well. After 3 days, cell viability was assessed using the Cell Proliferation Reagent WST-1 (Roche, Indianapolis, Ind.). Briefly, WST-1 reagent (10 μl) was added to each well for 3 hrs at 37° C. with 5% CO2 and WST-1 products were read at 450 nm using Packard SpectraCount™.
Because the strongest toxic effect of WIN55212-2 was measured in T98g cells, these cells are used as readout to study the structure activity relationship (SAR) of AAI compounds at inducing cell death through AAI receptors.

GPR124 = target: T1, GPR124 (Homo sapiens, UniProt Q96PE1); assay: siRNA knock-down of GPCR candidates, JWH-451 toxicity in T98g cells; type: cell-based; conditions: JWH-451 1 μM, siRNA targeting GPR124, viability after three days
T1 construct: endogenous in cells; host or cells: T98g human astrocytoma cells
T1 sequence (Q96PE1 34-1338): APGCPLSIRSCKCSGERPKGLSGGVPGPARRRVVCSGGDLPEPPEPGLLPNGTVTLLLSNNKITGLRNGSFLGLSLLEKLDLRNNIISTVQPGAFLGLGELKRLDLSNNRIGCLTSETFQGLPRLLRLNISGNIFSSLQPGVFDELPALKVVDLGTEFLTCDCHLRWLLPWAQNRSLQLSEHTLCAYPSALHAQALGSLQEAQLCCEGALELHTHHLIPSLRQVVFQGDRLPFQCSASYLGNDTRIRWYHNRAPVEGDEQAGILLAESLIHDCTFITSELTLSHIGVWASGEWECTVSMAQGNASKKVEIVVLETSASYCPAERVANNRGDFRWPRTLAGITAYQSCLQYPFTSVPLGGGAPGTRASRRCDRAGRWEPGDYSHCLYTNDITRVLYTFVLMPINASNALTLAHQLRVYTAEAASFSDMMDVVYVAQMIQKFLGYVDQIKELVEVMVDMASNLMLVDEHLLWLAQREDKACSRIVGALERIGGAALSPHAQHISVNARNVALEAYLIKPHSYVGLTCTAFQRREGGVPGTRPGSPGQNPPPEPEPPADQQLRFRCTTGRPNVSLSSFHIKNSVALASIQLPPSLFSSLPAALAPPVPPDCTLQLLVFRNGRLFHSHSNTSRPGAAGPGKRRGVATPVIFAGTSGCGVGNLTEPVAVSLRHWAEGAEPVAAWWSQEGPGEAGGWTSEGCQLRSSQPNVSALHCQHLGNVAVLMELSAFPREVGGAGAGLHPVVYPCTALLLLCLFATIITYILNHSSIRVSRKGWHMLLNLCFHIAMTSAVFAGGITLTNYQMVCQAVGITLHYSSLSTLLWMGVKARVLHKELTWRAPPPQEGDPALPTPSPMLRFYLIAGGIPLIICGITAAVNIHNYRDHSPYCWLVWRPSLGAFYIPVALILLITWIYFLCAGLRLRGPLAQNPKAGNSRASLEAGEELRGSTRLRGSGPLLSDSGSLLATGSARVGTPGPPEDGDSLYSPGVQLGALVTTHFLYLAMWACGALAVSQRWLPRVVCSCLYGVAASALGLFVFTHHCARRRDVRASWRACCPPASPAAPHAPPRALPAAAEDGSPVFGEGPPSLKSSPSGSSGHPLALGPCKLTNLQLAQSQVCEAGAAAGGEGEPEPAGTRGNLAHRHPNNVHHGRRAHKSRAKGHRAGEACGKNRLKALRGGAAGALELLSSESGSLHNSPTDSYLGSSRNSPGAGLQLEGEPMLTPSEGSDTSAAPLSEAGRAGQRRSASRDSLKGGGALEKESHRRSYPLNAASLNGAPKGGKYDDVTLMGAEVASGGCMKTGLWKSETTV
Method: To determine which of the gene candidate encodes for AAI receptors, an siRNA approach is used to knock down each candidate individually to determine which one prevents the toxic effect of JWH-451 and thus encodes for AAI receptors. The prediction is that knocking down AAI receptors prevents the cell death induced by JWH-451. T98g cells were treated with siRNA targeting each of the 39 GPCR gene candidates individually. The first experiment was designed to knock down each GPCR candidate using a mixture of 3 siRNAs thus maximize genetic targeting efficacy. Thus, cells were incubated with siRNA mixtures and then treated with JWH-451 (1 μM) and cell viability measured after three days. Only one mixture of siRNAs (that targeting GPR124) decreased the toxicity of JWH-451. […] Two of the three siRNAs knocked-down GPR124 expression by more than 80% over 4 days (FIG. 3b). […] The killing effect induced by JWH-451 is mediated by GPR124, a AAI receptor.

**Q.** How did the Emax (T98g cells; read-out: Toxic potency at T98g cells (percent efficacy)) turn out when CCn1c(C)c(C(=O)c2ccc(C)c3ccccc23)c2ccccc21 [JWH-451, 1-Ethyl-2-methyl-3-(4-methyl-1-napthoyl)indole] was run?
**A.** 81%

**Q.** And the EC50 (T98g cells; read-out: Toxic potency at T98g cells potency μM)?
**A.** 1.1 µM

**Q.** What about the “JWH-451-induced killing of T98g cells when GPR124 mRNA expression is reduced” value (GPR124) of the same molecule?
**A.** reduced
